Data on 30 compounds can be found in patent US11998539B2, “Substituted aminoquinolones as DGKalpha inhibitors for immune activation” (Bayer Aktiengesellschaft, priority 2019, dated 2024).

For this assay, the target named is DGKα (Homo sapiens (Human), UniProt P23743). Kind of assay: Human DGKα kinase activity inhibition assay (ADP-Glo). It counts as biochemical. As to conditions: recombinant full-length human DGKα, 55 μM ATP, 7 μM 1,2-dioleoyl-sn-glycerol, read-out: IC50 values of examples in in vitro human DGKa kinase activity inhibition assays. The protocol: Human DGKα Kinase Activity Inhibition Assay
DGKα, sequence (P23743 other isoform, or with tags, fused parts or gaps): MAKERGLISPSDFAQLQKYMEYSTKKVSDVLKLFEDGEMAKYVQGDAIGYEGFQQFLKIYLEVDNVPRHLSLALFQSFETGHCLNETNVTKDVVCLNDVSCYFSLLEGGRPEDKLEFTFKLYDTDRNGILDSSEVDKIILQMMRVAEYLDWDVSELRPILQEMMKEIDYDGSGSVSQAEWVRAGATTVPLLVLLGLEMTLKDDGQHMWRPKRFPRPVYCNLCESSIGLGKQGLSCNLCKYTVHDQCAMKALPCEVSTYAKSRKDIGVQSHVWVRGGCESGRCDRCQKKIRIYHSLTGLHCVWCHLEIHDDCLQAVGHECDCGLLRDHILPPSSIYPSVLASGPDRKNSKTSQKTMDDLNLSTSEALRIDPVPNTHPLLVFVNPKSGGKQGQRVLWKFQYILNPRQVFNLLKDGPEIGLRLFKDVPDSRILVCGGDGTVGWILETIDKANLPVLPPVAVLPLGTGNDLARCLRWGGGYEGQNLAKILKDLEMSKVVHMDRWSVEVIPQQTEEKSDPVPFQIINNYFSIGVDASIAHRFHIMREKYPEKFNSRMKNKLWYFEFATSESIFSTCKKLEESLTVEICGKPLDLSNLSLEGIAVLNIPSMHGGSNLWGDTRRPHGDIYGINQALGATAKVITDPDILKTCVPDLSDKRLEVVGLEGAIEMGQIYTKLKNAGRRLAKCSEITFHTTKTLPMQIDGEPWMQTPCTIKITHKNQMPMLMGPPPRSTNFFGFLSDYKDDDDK
Human DGKα inhibitory activity of compounds of the present invention was quantified employing the human DGKα kinase activity assay as described in the following paragraphs. In essence, the enzyme activity was measured by quantification of the adenosine-di-phosphate (ADP) generated as a co-product of the enzyme reaction via the “ADP-Glo™ Kinase Assay” kit from the company Promega. This detection system works as follows: In a first step the ATP not consumed in the kinase reaction is quantitatively converted to cAMP employing an adenylate cyclase (“ADP-Glo-reagent”), then the adenylate cyclase is stopped and the ADP generated in the kinase reaction converted to ATP, which subsequently generates in a luciferase-based reaction a glow-luminescence signal (“Kinase Detection Reagent”).
C-terminally FLAG-tagged, recombinant full-length human DGKα (expressed in baculovirus infected insect cells, purified using anti-Flag pulldown and size exclusion chromatography as described below, DGKa_hu_1) was used as enzyme. As substrate for the kinase 1,2-dioleoyl-sn-glycerol, reconstituted in octyl-β-D-glucopyranoside micelles, was used. […] Then 35 volumes of 50 mM MOPS buffer (pH 7.4) were added to yield a solution of 0.28 mM 1,2 dioleoyl-sn-glycerol and 200 mM […], which was aliquoted, flash-frozen in liquid nitrogen, and stored at −20° C. until use.
For the assay 50 nl of a 100-fold concentrated solution of the test compound in dimethyl sulfoxide (DMSO, Sigma) was pipetted into either a white 1536-well or a white low-volume 384-well microtiter plate (both Greiner Bio-One, Frickenhausen, Germany).
The term IC50 denotes the concentration needed to halve the response being measured. Take `Cc1ccc2oc(C3CCN(c4c(C#N)c(=O)n(C)c5cc(OCC6CCOC6)c(Cl)cc45)CC3)nc2c1` (racemic) [Example 572, (rac)-6-chloro-1-methyl-4-[4-(5-methyl-1,3-benzoxazol-2-yl)piperidin-1-yl]-2-oxo-7-[(oxolan-3-yl)methoxy]-1,2-dihydroquinoline-3-carbonitrile]: the IC50 is 1.5 nM.

Consider `Cn1c(=O)c(C#N)c(N2CCC(c3nc4ccccc4s3)CC2)c2cc(C#N)ccc21` [Example 176, 4-[4-(1,3-benzothiazol-2-yl)piperidin-1-yl]-1-methyl-2-oxo-1,2-dihydroquinoline-3,6-dicarbonitrile], for which the IC50 turned out to be 3 nM.

Take `Cn1c(=O)c(C(N)=O)c(N2CCC(C)(c3nnc(-c4cccc(Cl)c4)o3)CC2)c2ccccc21` [Example 465, 4-{4-[5-(3-chlorophenyl)-1,3,4-oxadiazol-2-yl]-4-methylpiperidin-1-yl}-1-methyl-2-oxo-1,2-dihydroquinoline-3-carboxamide]: the concentration for half-maximal inhibition (IC50) was 175 nM.

Take `Cn1c(=O)c(C#N)c(N2CCC(c3cccc4nccnc34)CC2)c2ccccc21` [Example 79, 1-methyl-2-oxo-4-[4-(quinoxalin-5-yl)piperidin-1-yl]-1,2-dihydroquinoline-3-carbonitrile]: the IC50 turned out to be 104 nM.

With `CC(C)c1ccc2oc(C3(C)CCN(c4c(C#N)c(=O)n(C)c5ccccc45)CC3)nc2c1` [Example 21, 1-methyl-4-{4-methyl-4-[5-(propan-2-yl)-1,3-benzoxazol-2-yl]piperidin-1-yl}-2-oxo-1,2-dihydroquinoline-3-carbonitrile], the IC50 turned out to be 5.2 nM.

As for `COc1ccc(C2CCN(c3c(C#N)c(=O)n(C)c4cc(C5=CCOCC5)ccc34)CC2)cc1` [Example 100, 7-(3,6-dihydro-2H-pyran-4-yl)-4-[4-(4-methoxyphenyl)piperidin-1-yl]-1-methyl-2-oxo-1,2-dihydroquinoline-3-carbonitrile], the IC50 was determined as 2.3 nM.

`COc1cc2c(cc1Br)c(N1CCC(c3nc(-c4ccccc4C)no3)CC1)c(C#N)c(=O)n2C` [Example 530, 6-bromo-7-methoxy-1-methyl-4-{4-[3-(2-methylphenyl)-1,2,4-oxadiazol-5-yl]piperidin-1-yl}-2-oxo-1,2-dihydroquinoline-3-carbonitrile]: the IC50 amounted to 1.8 nM.

`COc1ccc2cc(C3CCN(c4c(C#N)c(=O)n(C)c5ccccc45)CC3)ccc2c1` [Example 343, 4-[4-(6-methoxynaphthalen-2-yl)piperidin-1-yl]-1-methyl-2-oxo-1,2-dihydroquinoline-3-carbonitrile]: the IC50 worked out at 16 nM.

For `Cn1c(=O)c(C#N)c(N2CCC(c3nc4ccccc4o3)CC2)c2ccc(N3CCCC3=O)cc21` [Example 35, 4-[4-(1,3-benzoxazol-2-yl)piperidin-1-yl]-1-methyl-2-oxo-7-(2-oxopyrrolidin-1-yl)-1,2-dihydroquinoline-3-carbonitrile], the IC50 was found to be 7.8 nM.

Turning to `Cn1c(=O)c(C(N)=O)c(N2CCC(c3nc4ccccc4o3)CC2)c2ccc(Br)cc21` [Example 104, 4-[4-(1,3-benzoxazol-2-yl)piperidin-1-yl]-7-bromo-1-methyl-2-oxo-1,2-dihydroquinoline-3-carboxamide], the IC50 amounted to 0.6 nM.

As for `Cn1c(=O)c(C(N)=O)c(N2CCC(c3nc4ccccc4o3)CC2)c2ccc(N3CCCC3=O)cc21` [Example 318, 4-[4-(1,3-benzoxazol-2-yl)piperidin-1-yl]-1-methyl-2-oxo-7-(2-oxopyrrolidin-1-yl)-1,2-dihydroquinoline-3-carboxamide], the IC50 is 48 nM.

Turning to `COc1ccc(C2CCN(c3c(C#N)c(=O)n(C)c4ccc(C#N)cc34)CC2)cc1` [Example 173, 4-[4-(4-methoxyphenyl)piperidin-1-yl]-1-methyl-2-oxo-1,2-dihydroquinoline-3,6-dicarbonitrile], the IC50 turned out to be 12 nM.

Regarding `Cn1c(=O)c(C#N)c(N2CCC(c3ccccc3F)CC2)c2ccccc21` [Example 60, 4-[4-(2-fluorophenyl)piperidin-1-yl]-1-methyl-2-oxo-1,2-dihydroquinoline-3-carbonitrile], the IC50 stood at 33 nM.

As for `Cn1c(=O)c(C#N)c(N2CCC(c3cccc(Br)c3)CC2)c2ccccc21` [Example 85], the IC50 amounted to 54 nM.

Turning to `Cc1ccc2c(N3CCC(c4nc5ccccc5o4)CC3)c(C#N)c(=O)n(C)c2c1` [Example 219, 4-[4-(1,3-benzoxazol-2-yl)piperidin-1-yl]-1,7-dimethyl-2-oxo-1,2-dihydroquinoline-3-carbonitrile], the IC50 stood at 1.6 nM.

As for `Cc1ccc2oc(C3CCN(c4c(C(N)=O)c(=O)n(C)c5ccc(F)cc45)CC3)nc2c1` [Example 298, 6-fluoro-1-methyl-4-[4-(5-methyl-1,3-benzoxazol-2-yl)piperidin-1-yl]-2-oxo-1,2-dihydroquinoline-3-carboxamide], the IC50 came to 0.5 nM.

Turning to `Cn1c(=O)c(C#N)c(N2CCC(c3nc4cccc(F)c4o3)CC2)c2ccccc21` [Example 3, 4-[4-(7-fluoro-1,3-benzoxazol-2-yl)piperidin-1-yl]-1-methyl-2-oxo-1,2-dihydroquinoline-3-carbonitrile], the IC50 worked out at 2.6 nM.

For the compound `Cc1ccc2oc(C3(C)CCN(c4c(C#N)c(=O)n(C)c5cc(OCC6(O)CC6)ccc45)CC3)nc2c1` [Example 239, 7-[(1-hydroxycyclopropyl)methoxy]-1-methyl-4-[4-methyl-4-(5-methyl-1,3-benzoxazol-2-yl)piperidin-1-yl]-2-oxo-1,2-dihydroquinoline-3-carbonitrile], the IC50 came out at 0.6 nM.

For the compound `CC1Cc2cc(C3CCN(c4c(C(N)=O)c(=O)n(C)c5ccccc45)CC3)ccc2O1` (stereo not drawn) [Example 466, 1-methyl-4-{4-[2-methyl-2,3-dihydro-1-benzofuran-5-yl]piperidin-1-yl}-2-oxo-1 2-dihydroquinoline-3-carboxamide], the IC50 came out at 0.5 nM.

`Cc1ccc2oc(C3(C)CCN(c4c(C#N)c(=O)n(C)c5cc(OCC6(C#N)CC6)ccc45)CC3)nc2c1` [Example 251, 7-[(1-cyanocyclopropyl)methoxy]-1-methyl-4-[4-methyl-4-(5-methyl-1,3-benzoxazol-2-yl)piperidin-1-yl]-2-oxo-1,2-dihydroquinoline-3-carbonitrile]: the IC50 came out at 9.3 nM.

As to `Cn1ccc2c(F)cc(C3CCN(c4c(C#N)c(=O)n(C)c5ccccc45)CC3)cc21` [Example 365, 4-[4-(4-fluoro-1-methyl-1H-indol-6-yl)piperidin-1-yl]-1-methyl-2-oxo-1,2-dihydroquinoline-3-carbonitrile], the IC50 turned out to be 14 nM.

With `Cn1c(=O)c(C#N)c(N2CCC(c3cccc(N4CCOCC4)c3)CC2)c2ccccc21` [Example 63], the IC50 was 39 nM.

For `COCCc1ccc2oc(C3CCN(c4c(C#N)c(=O)n(C)c5ccccc45)CC3)nc2c1` [Example 283, 4-{4-[5-(2-methoxyethyl)-1,3-benzoxazol-2-yl]piperidin-1-yl}-1-methyl-2-oxo-1,2-dihydroquinoline-3-carbonitrile], the IC50 was found to be 6.8 nM.

Consider `Cc1ccc2c(N3CCC(c4ccccc4)CC3)c(C#N)c(=O)n(C)c2c1` [Example 255, 1,7-dimethyl-2-oxo-4-(4-phenylpiperidin-1-yl)-1,2-dihydroquinoline-3-carbonitrile], for which the IC50 worked out at 18 nM.

Consider `COc1ccccc1C1(O)CCN(c2c(C#N)c(=O)n(C)c3ccccc23)CC1` [Example 331, 4-[4-hydroxy-4-(2-methoxyphenyl)piperidin-1-yl]-1-methyl-2-oxo-1,2-dihydroquinoline-3-carbonitrile], for which the IC50 worked out at 861 nM.

For `Cn1c(=O)c(C#N)c(N2CCC(O)(c3cccc(C(F)(F)F)c3)CC2)c2ccccc21` [Example 152, 4-{4-hydroxy-4-[3-(trifluoromethyl)phenyl]piperidin-1-yl}-1-methyl-2-oxo-1,2-dihydroquinoline-3-carbonitrile], the IC50 was determined as 1070 nM.

With `Cc1ccc2oc(C3(C)CCN(c4c(C#N)c(=O)n(C)c5cc(N6C[C@H](O)CC6=O)ccc45)CC3)nc2c1` [Example 269, 7-[(4R)-4-hydroxy-2-oxopyrrolidin-1-yl]-1-methyl-4-[4-methyl-4-(5-methyl-1,3-benzoxazol-2-yl)piperidin-1-yl]-2-oxo-1,2-dihydroquinoline-3-carbonitrile], the IC50 worked out at 71 nM.

Consider `Cc1ccccc1-c1nnc(C2CCN(c3c(C#N)c(=O)n(C)c4ccccc34)CC2)o1` [Example 351, 1-methyl-4-{4-[5-(2-methylphenyl)-1,3,4-oxadiazol-2-yl]piperidin-1-yl}-2-oxo-1,2-dihydroquinoline-3-carbonitrile], for which the IC50 worked out at 87 nM.

With `Cc1ccc2oc(C3(C)CCN(c4c(C#N)c(=O)n(C)c5ccc(C6CC6)cc45)CC3)nc2c1` [Example 210, 6-cyclopropyl-1-methyl-4-[4-methyl-4-(5-methyl-1,3-benzoxazol-2-yl)piperidin-1-yl]-2-oxo-1,2-dihydroquinoline-3-carbonitrile], the half-inhibitory concentration (IC50) turned out to be 119 nM.

On to `Cc1ccc(C2CCN(c3c(C#N)c(=O)n(C)c4ccccc34)CC2)cn1` [Example 143, 1-methyl-4-[4-(6-methylpyridin-3-yl)piperidin-1-yl]-2-oxo-1,2-dihydroquinoline-3-carbonitrile], for which the IC50 came out at 554 nM.
